Measured values reported in patent publication US6448283B1, “Methods for preventing/treating damage to sensory hair cells and cochlear neurons” (Cephalon, Inc., priority 1998, dated 2002).
Where “and” joins values, the source holds several entries; their conditions need not be identical. Equal values may be shown once.

Key:
[1] = test system: inner and outer hair cells of the cochlea; test: Hair cell counts, delayed dosing after noise trauma; assay type: in vivo, guinea pig
Method: (§1) Guinea pigs were exposed to 120 dB, 4 kHz noise for 6 hr. The compound of Formula II was administered beginning 2 hours to 1 day prior to noise trauma, or 1 day after noise trauma, or 4 days after noise trauma. Dosing continued for 2 weeks after noise exposure. As described above, cochleas were prepared and numbers of preserved and lost inner hair cells (IHCs) and outer hair cells of different rows (OHC1, OHC2, OHC3) were counted 2 weeks post noise trauma.

[2] = test system: JNK signaling cascade (JNK and c-Jun phosphorylation); test: Phospho-JNK and phospho-c-Jun immunostaining in neomycin-exposed cochlear explants; assay type: cell-based, rat; details: 500 nM Formula II coincubated with neomycin; n=5 explants
Method: Six, 12 and 24 hr after adding 100 μM neomycin to the medium, cochlear cultures were fixed with 4% paraformaldehyde in PBS for 30 min. The specimens were prepared for 5 um-thick paraffin sections. They were stained with a TUNEL-kit, mounted in Vectashield containing DAPI nuclear counterstain (Vector, Burlingame, Calif.), and viewed under an Olympus Provis microscope (Tokyo, Japan) using epifluorescence. In addition to TUNEL-staining, DNA fragmentation was verified under UV illumination using DAPI counterstain.
Adjacent sections were immunostained with a polyclonal phospho-c-Jun antibody (Ser73, 1:500; New England Biolabs, Beverly, Mass.) and a polyclonal phospho-JNK antibody (Thr183/Tyr185, 1:250 dilution; New England Biolabs). The phospho-JNK antibody detects the dually phosphorylated isoforms of JNK 1, 2 and 3. The specificity of the phospho-specific antibodies was verified by Western blotting using sorbitol-treated PC 12 cells. Phospho-JNK antibody recognized the phosphorylated p54/p46 JNK and phospho-c-Jun antibody the phosphorylated p46 c-Jun in sorbitol-treated, but not in untreated PC 12 cells. […] Calbindin immunoreaction was detected using the ABC method and diaminobenzidine without tyramide signal amplification, and the sections were lightly counterstained with 1% toluidine blue. […]

[3] = test system: motorneurons; details: by inhibiting the JNK signaling pathway; Maroney et al., 1998; cited from earlier work
[4] = test system: hair cells of the organ of Corti; test: TUNEL staining of apoptotic hair cells in noise-exposed cochleas; assay type: in vivo, guinea pig; details: first 6 days after noise exposure
Method: Adult Dunkin-Hartley female guinea pigs (weight 300-500 g) were exposed, 4 animals at a time, to octave band noise, with a center frequency of 4.0 kHz, 120 dB SPL for 6 hr as described in Example 1. Fragmented hair cell nuclei were assessed from noise-exposed cochleas immediately and 1, 2, 4, 6, 8 and 14 days after noise exposure. Noise-exposed and nonexposed guinea pigs were decapitated under deep anesthesia and inner ears were perilymphatically perfused with 4% paraformaldehyde in PBS, and processed for […] paraffin-embedded sections (Ylikoski et al., Hear Res 65:69-78, 1993; Ylikoski et al., Hear Res 124:17-26, 1998). TUNEL-staining was performed as described below. DNA fragmentation was also verified by DAPI nuclear counterstain (see below). Further, trauma-induced nuclear fragmentation was verified by morphological analysis of contralateral cochleas that were perilymphatically fixed with 2.5% glutaraldehyde in 0.1M phosphate buffer, pH 7.4, postfixed with 1% osmium tetroxide, embedded in epoxy resin, and prepared for surface preparations (see below). Selected cochlear segments were then cut in transverse and horizontal planes to semi-thin ([…]) sections that were stained with 1% toluidine blue. Analysis was done under an Olympus Provis microscope equipped with Nomarski optics. […]

[5] = test system: noise-exposed guinea pigs; test: ABR threshold shifts, delayed dosing after noise trauma; assay type: in vivo, guinea pig
Method: as §1
ABRs were determined 1 day before noise trauma (baseline values) and 2 weeks post noise trauma. […] Thresholds were determined at frequencies 2, 4, 8, 16 and 32 kHz from a set of responses at varying intensities with 5 dB intervals and 1000 sweeps near the threshold. ABRs were measured with System II hardware and BioSig software. Ketamine (40 mg/kg) and xylazine (10 mg/kg) were used for anaesthesia.

[6] = test system: gentamicin-treated guinea pigs; test: ABR threshold shifts after gentamicin treatment; assay type: in vivo, guinea pig; details: gentamicin 120 mg/kg s.c. 14 days plus Formula II 1 mg/kg daily; day 30; n=8; P<0.01
Method: Adult Dunkin-Hartley female guinea pigs (weight 300-400 g) were used. They were given free access to water and a regular guinea pig diet. The animals were given 1 week of adjustment before baseline ABR recordings and gentamicin (GM) treatment.
Two experimental groups were formed. Group 1 guinea pigs served as control and were treated with gentamicin only. The animals were injected s.c. with gentamicin at 120 mg/kg body weight, once daily for 14 days. Three guinea pigs (yielding a total of 6 inner ears) were included in this group. The animals were decapitated 30 days after the start of the injections.
Group 2 guinea pigs were treated with gentamicin plus Formula II. The animals were injected s.c. with GM at 120 mg/kg body weight, plus Formula II at 1 mg/kg, once daily for 14 days. Formula II treatment started 1 day before GM injections. Formula II treatment was continued for 28 or 29 days. Four guinea pigs (8 inner ears) were included in this group. The animals were decapitated 30 days after the start of GM injections.
ABRs were determined 1 day before GM injections (baseline values) and at day 30 after the start of the GM injections. […] Thresholds were determined at frequencies 2, 4, 8, 16 and 32 kHz from a set of responses at varying intensities with 5 dB intervals and 1000 sweeps near the threshold. ABRs were measured with System II hardware and BioSig software. […]

CCSCc1ccc2c(c1)c1c3c(c4c5cc(CSCC)ccc5n5c4c1n2C1C[C@](O)(C(=O)OC)[C@]5(C)O1)CNC3=O [Formula II]
OHC loss total (%) ([1]; 1 day delayed dosing, single cochlea): 6.4% and 3.7% and 1.2% and 2.0% and 5.4% and 2.4% | loss of hair cells versus control cochleas ([1]; following exposure to noise, 1 day delayed P<0.01, 4 day delayed P<0.05): less loss of hair cells | induction of JNK and c-Jun phosphorylation in hair cells [2]: prevented | death of motorneurons in vitro [3]: prevent death of motorneurons in vitro | amount of apoptotic hair cell loss versus control cochleas [4]: less | average threshold shift of control animals greater than that of treated animals ([5]; Formula II begun prior to the lesion, noise 120 dB 4 kHz 6 hr, 2 weeks post noise): 20-40 dB | ABR threshold shift versus vehicle-treated, noise-exposed controls ([5]; Formula II-treated animals, 2 weeks post noise): less threshold shift at all frequencies tested | ABR threshold shift, delayed administration ([5]; administration begun 1 or 4 days after exposure to noise): Decreased threshold shifts | ABR threshold shift versus control cochleas (GM only) [6]: less threshold shift at all frequencies tested
